In PMC6155683, “Pharmacokinetics Studies of 12 Alkaloids in Rat Plasma after Oral Administration of Zuojin and Fan-Zuojin Formulas” (Molecules : A Journal of Synthetic Chemistry and Natural …, 2017):
Read-outs that look alike come from different tables or passages of the source.

Columns and labels:
[1] = cited from earlier work
[2] = cited from earlier work; remark: listed apart in the source
P-gp = conditions: cited from earlier work
[3] = PK study of the 12 alkaloids in rat plasma after oral administration of ZJ and FZJ extract (LC–MS/MS); type: in vivo
Protocol: The time schedule included 15 time-points and six rats were sampled at each time-point. All the rats were orally administered with ZJ extract (suspended in water) at a dose of 3.38 g/kg body weight (dosages of the 12 alkaloids were shown in Table S4), equivalent to crude drug dose of 12 g/kg body weight. Blood samples were collected from the suborbital vein of the rats at 10, 20, 30, 60, 90, 120, 180, 240, 300, 330, 360, 480, 720, 1440, 2160 min after administration, and centrifuged immediately at 5000 rpm for 10 min. The plasma samples were stored at −20 °C until analysis.
Similarly, the time schedule of other rats included 15 time-points and six rats were orally administered with FZJ extract at a dose of 3.76 g/kg body weight (also equivalent to crude drug dose of 12 g/kg body weight, Table S4). Blood samples were collected and treated as mentioned above in the PK study of ZJ extract.
PK parameters of the 12 alkaloids including AUC0→t, AUC0→∞, mean retention time (MRT0→t, MRT0→∞), and elimination half-life (t1/2) were calculated with non-compartmental method by DAS 2.0 software (Mathematical Pharmacology Professional Committee of China, Shanghai, China). Maximum plasma drug concentration (Cmax) and time to reach the maximum plasma drug concentration (Tmax) were observed directly from the detected C–T data. The results were expressed as arithmetic mean ± standard deviation (SD).

[4] = Stability of analytes in rat plasma under storage conditions; type: physicochemical; conditions: n = 6; for Stability RE, 3 freeze-thaw cycles / Stability RE, 30 days at −20 °C: rat plasma; for Stability RE, processed samples' stability: room temperature 24 h
Protocol: The stabilities of analytes in plasma were assessed by analyzing the QC samples at three concentration levels under the following storage conditions: after three freeze (−20 °C)-thaw (room temperature) cycles; stored at −20 °C for 30 days, and comparing the results with those of freshly prepared QC samples. Stabilities of the processed samples at room temperature for 24 h were also assessed.

[5] = jejunum vs ileum and colon; cited from earlier work
[6] = cited from earlier work; remark: listed apart in the source
Caco-2 cell monolayer = conditions: cited from earlier work

## COc1ccc2cc3[n+](cc2c1OC)CCc1cc2c(cc1-3)OCO2 [berberine]
[1]
  absolute bioavailability: less than 1%
[2]
  primary elimination route in vivo: renal excretion
P-gp; not told
  P-gp substrate: P-gp substrates
[3]; 3.38 g/kg, rat plasma, oral ZJ extract, mean ± SD, n = 6, read-out: AUC0→t
  AUC(0-t): 277 ± 50.1 ng·h/mL
[3]; 3.38 g/kg, rat plasma, oral ZJ extract, mean ± SD, n = 6, read-out: AUC0→∞
  AUC(0-inf): 300 ± 55.3 ng·h/mL
[3]; 3.38 g/kg, rat plasma, oral ZJ extract, mean ± SD, n = 6, read-out: Cmax
  Cmax: 109 ± 48.3 ng/mL
[3]; 3.38 g/kg, rat plasma, oral ZJ extract, mean ± SD, n = 6, read-out: MRT0→t (converted)
  MRT last: 6.46 h
[3]; 3.38 g/kg, rat plasma, oral ZJ extract, mean ± SD, n = 6, read-out: MRT0→∞ (converted)
  MRT inf: 8.58 h
[3]; 3.38 g/kg, rat plasma, oral ZJ extract, mean ± SD, n = 6, read-out: t1/2
  half-life: 6.3 ± 3.24 h
[3]; 3.38 g/kg, rat plasma, oral ZJ extract, read-out: Tmax (converted)
  Tmax: 1.5 h
[3]; 3.76 g/kg, rat plasma, oral FZJ extract, mean ± SD, n = 6, read-out: AUC0→t
  AUC(0-t): 48.1 ± 9.6 ng·h/mL
[3]; 3.76 g/kg, rat plasma, oral FZJ extract, mean ± SD, n = 6, read-out: AUC0→∞
  AUC(0-inf): 50.2 ± 10.7 ng·h/mL
[3]; 3.76 g/kg, rat plasma, oral FZJ extract, mean ± SD, n = 6, read-out: Cmax
  Cmax: 23.7 ± 7.42 ng/mL
[3]; 3.76 g/kg, rat plasma, oral FZJ extract, mean ± SD, n = 6, read-out: MRT0→t (converted)
  MRT last: 4.07 h
[3]; 3.76 g/kg, rat plasma, oral FZJ extract, mean ± SD, n = 6, read-out: MRT0→∞ (converted)
  MRT inf: 4.68 h
[3]; 3.76 g/kg, rat plasma, oral FZJ extract, mean ± SD, n = 6, read-out: t1/2
  half-life: 2.22 ± 0.835 h
[3]; 3.76 g/kg, rat plasma, oral FZJ extract, read-out: Tmax (converted)
  Tmax: 3 h
[3]; rat plasma, oral FZJ extract
  Tsec (time of the secondary peak in C–T curve): 30 min
[3]; rat plasma, oral FZJ extract, mean ± SD, n = 6
  Csec (drug concentration of the secondary peak in C–T curve): 11.64 ± 7.28 ng/mL
[3]; rat plasma, oral ZJ extract
  Tsec (time of the secondary peak in C–T curve): 300 min
[3]; rat plasma, oral ZJ extract, mean ± SD, n = 6
  Csec (drug concentration of the secondary peak in C–T curve): 44.68 ± 21.28 ng/mL
[4]; high QC concentration
  Stability RE, 3 freeze-thaw cycles: −14.86%
  Stability RE, 30 days at −20 °C: −14.65%
  Stability RE, processed samples' stability: −13.71%
[4]; low QC concentration
  Stability RE, 3 freeze-thaw cycles: 7.87%
  Stability RE, 30 days at −20 °C: −8.36%
  Stability RE, processed samples' stability: 9.52%
[4]; medium QC concentration
  Stability RE, 3 freeze-thaw cycles: −1.36%
  Stability RE, 30 days at −20 °C: −13.68%
  Stability RE, processed samples' stability: 4.57%
[5]
  absorption rate constant (Ka) compared between intestinal sites: greater than that at ileum and colon
[6]; 0–36 h after intragastric administration
  berberine existed as prototype: at least 56%
[6]; at 36 h after intragastric administration
  berberine remained in the GI tract: 24%

## c1c2c(cc3c1OCO3)-c1cc3ccc4c(c3c[n+]1CC2)OCO4 [coptisine]
P-gp
  P-gp substrate: P-gp substrates
[3]; rat plasma, oral ZJ extract
  Tsec (time of the secondary peak in C–T curve): 90 min
[3]; rat, in vivo, po
  Csec (drug concentration of the secondary peak in C–T curve): 4.96 ± 2.29 ng/mL
[3]; rat, in vivo, po, 3.38 g/kg
  AUC(0-inf): 71.6 ± 10.7 ng·h/mL
  AUC(0-t): 68.7 ± 10.8 ng·h/mL
  Cmax: 14.1 ± 7.75 ng/mL
  MRT inf: 12.3 h
  MRT last: 10.7 h
  Tmax: 5 h
  half-life: 8.01 ± 1.92 h
[3]; rat, in vivo, po, 3.76 g/kg
  AUC(0-inf): 11.8 ± 1.25 ng·h/mL
  AUC(0-t): 11 ± 1.64 ng·h/mL
  Cmax: 4.78 ± 2.31 ng/mL
  MRT inf: 5.2 h
  MRT last: 4.18 h
  Tmax: 3 h
  half-life: 2.93 ± 1.22 h
[4]; high QC concentration
  Stability RE, 3 freeze-thaw cycles: 0.97%
  Stability RE, 30 days at −20 °C: 0.65%
  Stability RE, processed samples' stability: −8.19%
[4]; low QC concentration
  Stability RE, 3 freeze-thaw cycles: 6.92%
  Stability RE, 30 days at −20 °C: −11.58%
  Stability RE, processed samples' stability: −10.47%
[4]; medium QC concentration
  Stability RE, 3 freeze-thaw cycles: 5.77%
  Stability RE, 30 days at −20 °C: −8.99%
  Stability RE, processed samples' stability: −2.14%
[5]
  absorption rate constant (Ka) compared between intestinal sites: better absorption rate at colon compared with jejunum

## C[n+]1c2n(c(=O)c3ccccc31)CCc1c-2[nH]c2ccccc12 [dehydroevodiamine]
Caco-2 cell monolayer
  Papp: 12.6 ×10⁻⁶ cm/s
[3]; rat, in vivo, po
  Csec (drug concentration of the secondary peak in C–T curve): 117.29 ± 45.45 ng/mL
  Tsec (time of the secondary peak in C–T curve): 90 min
[3]; rat, in vivo, po, 3.38 g/kg
  AUC(0-inf): 537 ± 55 ng·h/mL
  AUC(0-t): 532 ± 57.8 ng·h/mL
  Cmax: 155 ± 27.9 ng/mL
  MRT inf: 4.71 h
  MRT last: 4.34 h
  Tmax: 4 h
  half-life: 3.21 ± 2.27 h
[3]; rat, in vivo, po, 3.76 g/kg
  AUC(0-inf): 286 ± 24.1 ng·h/mL
  AUC(0-t): 275 ± 23.2 ng·h/mL
  Cmax: 85.3 ± 13.4 ng/mL
  MRT inf: 5.96 h
  MRT last: 4.66 h
  Tmax: 1.5 h
  half-life: 5.03 ± 2.87 h
[4]; high QC concentration
  Stability RE, 3 freeze-thaw cycles: 5.86%
  Stability RE, 30 days at −20 °C: 4.85%
  Stability RE, processed samples' stability: −1.09%
[4]; low QC concentration
  Stability RE, 3 freeze-thaw cycles: 4.36%
  Stability RE, 30 days at −20 °C: −6.34%
  Stability RE, processed samples' stability: −0.76%
[4]; medium QC concentration
  Stability RE, 3 freeze-thaw cycles: 14.45%
  Stability RE, 30 days at −20 °C: −1.12%
  Stability RE, processed samples' stability: 4.78%

## COc1cc2c(cc1OC)-c1cc3ccc(OC)c(OC)c3c[n+]1CC2 [palmatine]
P-gp; not told
  P-gp substrate: P-gp substrates
[3]; rat, in vivo, po, 3.38 g/kg
  AUC(0-inf): 96.6 ± 33.2 ng·h/mL
  AUC(0-t): 88.3 ± 24.9 ng·h/mL
  Cmax: 34.1 ± 19.2 ng/mL
  MRT inf: 8.75 h
  MRT last: 6.74 h
  Tmax: 1.5 h
  half-life: 5.65 ± 2.41 h
[3]; rat, in vivo, po, 3.76 g/kg
  AUC(0-inf): 18.9 ± 5.5 ng·h/mL
  AUC(0-t): 18.2 ± 4.98 ng·h/mL
  Cmax: 9.74 ± 3.53 ng/mL
  MRT inf: 4.49 h
  MRT last: 3.86 h
  Tmax: 3 h
  half-life: 2.51 ± 1.73 h
[4]; high QC concentration
  Stability RE, 3 freeze-thaw cycles: −12.89%
  Stability RE, 30 days at −20 °C: −12.35%
  Stability RE, processed samples' stability: −12.47%
[4]; low QC concentration
  Stability RE, 3 freeze-thaw cycles: −14.23%
  Stability RE, 30 days at −20 °C: −17.74%
  Stability RE, processed samples' stability: −9.27%
[4]; medium QC concentration
  Stability RE, 3 freeze-thaw cycles: −7.2%
  Stability RE, 30 days at −20 °C: −13.85%
  Stability RE, processed samples' stability: −2.85%
[5]
  absorption rate constant (Ka) compared between intestinal sites: greater than that at ileum and colon
